Measured values: publication PMC4795541, “A Rapid and Quantitative Flow Cytometry Method for the Analysis of Membrane Disruptive Antimicrobial Activity” (PLoS ONE, 2016)
Values after ≈ are worked out from the molar mass of the structure shown. Read-outs that look alike come from different tables or passages of the source. Marks after values point to notes of the source that are not given here. Where a SMILES comes first, the peptide text is derived from it. Where no end group is shown, it is not given here. [ ]: non-standard residue; d: D form. Phe(ol) = N[C@H](CO)Cc1ccccc1; Dab = NCC[C@H](N)C(=O)O; Dap = NC[C@H](N)C(=O)O; Aib = CC(C)(N)C(=O)O

Tests used:
E. aerogenes ATCC 13048 = details: E. aerogenes ATCC 13048; 90 min incubation; average of 3 assays ± SD
From the text: (§1) The bacterial strains; Fusobacterium nucleatum ATCC 25586, Streptococcus mutans Ingbritt, Staphylococcus aureus (MSSA) ATCC 29213; Staphylococcus aureus (MRSA) ATCC 43300; Enterococcus faecalis ATCC 29212; Enterobacter aerogenes ATCC 13048; Pseudomonas aeruginosa strain PAO1-LAC, ATCC 47085; Klebsiella pneumoniae ATCC 13883; Acinetobacter baumannii strain 2208, ATCC 19606; Escherichia coli ATCC 25922 lyophilised or glycerol stocks were obtained from the culture collection of the Oral Health Cooperative Research Centre, The Melbourne Dental School, University of Melbourne, Australia. These strains were selected for this study as they are widely used in antimicrobial studies and are considered to be important pathogens and major targets for antibiotic resistant studies. Bacteria were grown aerobically and maintained by passage at ambient temperature (E. coli, K. pneumoniae, A. baumannii and S. aureus strains) or at 37°C (P. aeruginosa, E. faecalis and E. aerogenes) on horse blood agar (10% v/v defibrinated horse blood, 4.4% w/v Oxoid Blood Agar Base No. 2). S. mutans and F. nucleatum were grown anaerobically (MK3 anaerobic workstation, Don Whitley Scientific Limited, England) and maintained by passage at 37°C on Todd Hewitt agar (3.6% w/v Oxoid Todd-Hewitt Broth, 1.5% w/v sucrose, 1.5% w/v BactoTM Agar, 0.8% w/v Oxoid Yeast Extract) or horse blood agar, respectively. For the antimicrobial peptide assays a 20 mL starter culture was produced by taking single colonies from blood or Todd Hewitt agar plates, respectively, to inoculate either: Luria Broth (LB; 1% w/v BactoTM Tryptone, 1% w/v NaCl, 0.5% w/v Oxoid Yeast Extract, pH 7.5, Thermo Scientific Pty, Ltd, Sydney, Australia) for bacteria; E. coli, K. pneumoniae, P. aeruginosa, A. baumannii, E. faecalis, E. aerogenes and S. aureus which were grown aerobically at 37°C, or Todd Hewitt broth (3.6% w/v Oxoid Todd-Hewitt Broth, 1.5% w/v sucrose, 0.8% w/v Oxoid Yeast 9 Extract) for S. mutans, or Brain Heart Infusion broth (BHI; 3.7% w/v Oxoid BHI, 0.05% w/v L-cysteine) for F. nucleatum which were both grown anaerobically at 37°C. After overnight incubation, 0.5–2.0 mL of the starter culture was used to inoculate the appropriate fresh broth (200 mL) and growth monitored at 650 nm using a spectrophotometer (model 275E; Perkin-Elmer, Sydney, Australia) with culture purity checked by microscopic examination and culture. Bacteria were harvested during late exponential growth phase and viability and bacteria/mL determined using a BacLight viability kit (Invitrogen, Sydney, Australia) and a Quanta SC-MPL flow cytometer (Beckman coulter Pty, Ltd, Sydney, Australia).
(§2) Antibacterial assays were undertaken to determinate the minimum inhibitory concentration (MIC), minimum bactericidal concentration (MBC) and minimum membrane disruptive concentration (MDC) of each of the antimicrobial peptides (AMP) and AMP analogues (S1 Table). For each bacterim a stock solution (2.5 × 10^6 cells/mL) in the respective media was made and an aliquot incubated with AMPs within 15 minutes from viable cell count and stock preparation. All AMPs were dissolved in DMSO and a 500 μM stock solution prepared by adding the respective media and serial dilutions (250–0.244 μM) of the AMP in media (100 μL/well) made just prior addition of bacteria. […] One hundred microliter aliquots of the bacterial stock solution (2.5 × 10^5 cells/well) were added to the AMP serial dilutions and incubated at 37°C for 90 min. Assay preparation and incubations were conducted in aerobic or anaerobic conditions dependent on the bacteria. Bacteria were also incubated in the absence of AMP to serve as a growth control for the assay. After the 90 minute incubation period the antimicrobial activity (MIC, MBC and MDC) was determined as follows;
(§3) For determination of MBC, the CLSI protocol was followed, with the modifications being that due to the rapid action of the AMPs the assay incubation time was shortened from 16–20 hours to 90 minutes.

[1] = test system: S. aureus (MRSA) ATCC 43300; details: S. aureus (MRSA) ATCC 43300; 90 min incubation; average of 3 assays ± SD
From the text: as §1, §2, §3

[2] = test system: P. aeruginosa strain PAO1-LAC, ATCC 47085; details: P. aeruginosa PAO1-LAC, ATCC 47085; 90 min incubation; average of 3 assays ± SD
From the text: as §1, §2, §3

F. nucleatum ATCC 25586 = test system: F. nucleatum ATCC 25586
From the text: as §1, §2, §3

[3] = test system: A. baumannii strain 2208, ATCC 19606; details: A. baumannii strain 2208, ATCC 19606; 90 min incubation; average of 3 assays ± SD
From the text: as §1, §2, §3

[4] = test system: S. aureus (MSSA) ATCC 29213; details: S. aureus (MSSA) ATCC 29213; 90 min incubation; average of 3 assays ± SD
From the text: as §1, §2, §3

E. faecalis ATCC 29212 = details: E. faecalis ATCC 29212; 90 min incubation; average of 3 assays ± SD
From the text: as §1, §2, §3

S. mutans Ingbritt = assay: MDC, flow cytometry Syto9/PI membrane disruption assay; type: cell-based, Streptococcus mutans; details: 90 min peptide/bacteria incubation, average of 3 assays ± SD
From the text: as §1
Antibacterial assays were undertaken to determinate the minimum inhibitory concentration (MIC), minimum bactericidal concentration (MBC) and minimum membrane disruptive concentration (MDC) of each of the antimicrobial peptides (AMP) and AMP analogues (S1 Table). For each bacterim a stock solution (2.5 × 10^6 cells/mL) in the respective media was made and an aliquot incubated with AMPs within 15 minutes from viable cell count and stock preparation. All AMPs were dissolved in DMSO and a 500 μM stock solution prepared by adding the respective media and serial dilutions (250–0.244 μM) of the AMP in media (100 μL/well) made just prior addition of bacteria. […] After the 90 minute incubation period the antimicrobial activity (MIC, MBC and MDC) was determined as follows;

sheep red blood cells = assay: Hemolysis assay; type: cell-based; details: for Therapeutic Index (hemolysis): HC50/MDC50 (F. nucleatum), given as x : 1
Method: Fresh sheep red blood cells in Alsever’s solution (RBCs, Equicell, Victoria, Australia) were diluted 1 in 20 in PBS (pH 7.4), pelleted by centrifugation, and washed three times in PBS (1000 g, 10 min). The RBCs were counted using a cell counter (Coulter Particle Counter Z series, Beckman Coulter) and diluted to a final concentration of 2 × 10^7 cells/mL. […] Following incubation, the RBCs were pelleted centrifuged (1000 g, 10 min) and the amount of haemoglobin in 100 μL aliquots determined by measuring the absorbance at 405 nm using a microplate reader (PerkinElmer 1420 Multilabel Counter VICTOR3). Positive and negative controls for hemolysis were taken as RBC lysed with 0.5% Triton X-100 (1:1 v/v) and RBC suspension in PBS, respectively. The percentage of hemolysis was calculated using the following formula: % Hemolysis = [(A405 test sample—A405 negative control) / (A405 positive control—A405 negative control)] × 100
The percentage hemolysis was plotted against peptide concentration and linear regression analysis was used to determine the hemolytic concentration needed to lyse 50% (HC50) of RBCs.

[5] = F. nucleatum ATCC 25586, 90 min peptide/bacteria incubation, CFU on agar, ≥ 99.9% reduction, average of 3 assays ± SD
[6] = sheep RBCs 2 × 10^7 cells/mL in PBS pH 7.4, 2 h at 37°C, 5% CO2, A405, linear regression, maximum peptide concentration = 1000 µM

Row | Compound | MBC (E. aerogenes ATCC 13048) [µM] | MBC [1] [µM] | MBC [2] [µM] | MBC (F. nucleatum ATCC 25586; [5]) [µM] | MBC [3] [µM] | MBC [4] [µM] | MBC (E. faecalis ATCC 29212) [µM] | MDC (S. mutans Ingbritt) | Therapeutic Index (hemolysis) (sheep red blood cells) | Hemolysis (HC50) (sheep red blood cells; pH 7.4) [µM] | MBC (F. nucleatum ATCC 25586; ATCC 25586) | MBC (F. nucleatum ATCC 25586; F. nucleatum ATCC 25586, 90 min peptide/bacteria incubation, CFU on agar, ≥ 99.9% reduction, average of 3 assays ± SD, listed as Native) [µM] | Hemolysis (HC50) (sheep red blood cells; [6]) [µM]
1 | CC(=O)NC(C)(C)C(=O)N1CCC[C@H]1C(=O)NC(C)(C)C(=O)N[C@@H](C)C(=O)NC(C)(C)C(=O)N[C@@H](C)C(=O)N[C@@H](CCC(N)=O)C(=O)NC(C)(C)C(=O)N[C@H](C(=O)NC(C)(C)C(=O)NCC(=O)N[C@@H](CC(C)C)C(=O)NC(C)(C)C(=O)N1CCC[C@H]1C(=O)N[C@H](C(=O)NC(C)(C)C(=O)NC(C)(C)C(=O)N[C@@H](CCC(=O)O)C(=O)N[C@@H](CCC(N)=O)C(=O)N[C@H](CO)Cc1ccccc1)C(C)C)C(C)C [Alamethicin] (Ac-[Aib]P[Aib]A[Aib]AQ[Aib]V[Aib]GL[Aib]PV[Aib][Aib]EQ[Phe(ol)]; N-terminus assumed) | >250 | 59.2 ± 1.7 (≈ 116 µg/mL) | >250 | 18.0 ± 3.9 (≈ 35.4 µg/mL) | >250 | 27.9 ± 6.9 (≈ 54.8 µg/mL) | 48.1 ± 5.4 (≈ 94.5 µg/mL) | 41.9 ± 8.3 µM |  |  |  |  | 
2 | CC[C@H](C)[C@H](NC(=O)CN)C(=O)NCC(=O)N[C@@H](CCN)C(=O)N[C@@H](Cc1ccccc1)C(=O)N[C@@H](CC(C)C)C(=O)N[C@@H](Cc1c[nH]cn1)C(=O)N[C@@H](CO)C(=O)N[C@@H](C)C(=O)N[C@@H](CCN)C(=O)N[C@@H](CCN)C(=O)N[C@@H](Cc1ccccc1)C(=O)NCC(=O)N[C@@H](CCN)C(=O)N[C@@H](C)C(=O)N[C@@H](Cc1ccccc1)C(=O)N[C@H](C(=O)NCC(=O)N[C@@H](CCC(=O)O)C(=O)N[C@H](C(=O)N[C@@H](CCSC)C(=O)N[C@@H](CC(N)=O)C(=O)N[C@@H](CO)C(N)=O)[C@@H](C)CC)C(C)C [Magainin-Dab] (H-GIG[Dab]FLHSA[Dab][Dab]FG[Dab]AFVGEIMNS-NH2; N-terminus assumed) |  |  |  |  |  |  |  | >200^c μM | >182 : 1 | >1000 |  |  | 
3 | CC[C@H](C)[C@H](NC(=O)CN)C(=O)NCC(=O)N[C@@H](CN)C(=O)N[C@@H](Cc1ccccc1)C(=O)N[C@@H](CC(C)C)C(=O)N[C@@H](Cc1c[nH]cn1)C(=O)N[C@@H](CO)C(=O)N[C@@H](C)C(=O)N[C@@H](CN)C(=O)N[C@@H](CN)C(=O)N[C@@H](Cc1ccccc1)C(=O)NCC(=O)N[C@@H](CN)C(=O)N[C@@H](C)C(=O)N[C@@H](Cc1ccccc1)C(=O)N[C@H](C(=O)NCC(=O)N[C@@H](CCC(=O)O)C(=O)N[C@H](C(=O)N[C@@H](CCSC)C(=O)N[C@@H](CC(N)=O)C(=O)N[C@@H](CO)C(N)=O)[C@@H](C)CC)C(C)C [Magainin-Dap] (H-GIG[Dap]FLHSA[Dap][Dap]FG[Dap]AFVGEIMNS-NH2; N-terminus assumed) |  |  |  |  |  |  |  | >200^c μM | >67 : 1 | >1000 | 29.7±0.4^c μM |  | 
4 | GIGKFLHSAKKFGKAFVGEIMNS-NH2 [Magainin II] | >250 | >250 | 56.3 ± 4.2 | 8.1 ± 1.3 | 20.0 ± 1.0 | >250 | >250 |  |  |  |  | 7.3 ± 1.0 | 479.5 ± 42.9
5 | GIGRFLHSARRFGRAFVGEIMNS-NH2 [Magainin-Arg] |  |  |  |  |  |  |  | 42.5±5.7^c μM | 100.8 : 1 | 251.9 ± 48.2 | 2.5±0.8^c μM |  | 
6 | GIGXFLHSAXXFGXAFVGEIMNS-CONH2 [Magainin-Orn, magainin II analogue, all lysine residues substituted with ornithine] |  |  |  | 14.9 ± 0.2 |  |  |  | >200^c μM | 126.5 : 1 |  |  |  | 721.1 ± 65.3
